# Results taken from PubChem BioAssay (NCI).
#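 Test compounds were applied to cells in 96-well plates for 48 hours at 5 doses. GI50 is the concentration that inhibits growth by half. TGI: total growth inhibition.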
# How the values were obtained:
# Assay in all cases: NCI tumour cell line growth inhibition, 48 h
# 786-0 renal = test system: 786-0 renal
# A498 renal = test system: A498 renal
# A549 NSCLC = test system: A549 NSCLC
# ACHN renal = test system: ACHN renal
# BT-549 breast = test system: BT-549 breast
# CAKI-1 renal = test system: CAKI-1 renal
# CCRF-CEM leukemia = test system: CCRF-CEM leukemia
# COLO 205 colon = test system: COLO 205 colon
# DU-145 prostate = test system: DU-145 prostate
# EKVX NSCLC = test system: EKVX NSCLC
# HCC-2998 colon = test system: HCC-2998 colon
# HCT-116 colon = test system: HCT-116 colon
# HCT-15 colon = test system: HCT-15 colon
# HL-60(TB) leukemia = test system: HL-60(TB) leukemia
# HOP-62 NSCLC = test system: HOP-62 NSCLC
# HOP-92 NSCLC = test system: HOP-92 NSCLC
# HS 578T breast = test system: HS 578T breast
# HT29 colon = test system: HT29 colon
# IGROV1 ovarian = test system: IGROV1 ovarian
# K-562 leukemia = test system: K-562 leukemia
# KM12 colon = test system: KM12 colon
# LOX IMVI melanoma = test system: LOX IMVI melanoma
# M14 melanoma = test system: M14 melanoma
# MALME-3M melanoma = test system: MALME-3M melanoma
# MCF7 breast = test system: MCF7 breast
# MDA-MB-231 breast = test system: MDA-MB-231 breast
# MDA-MB-435 = test system: MDA-MB-435
# MOLT-4 leukemia = test system: MOLT-4 leukemia
# NCI-H226 lung = test system: NCI-H226 lung
# NCI-H23 lung = test system: NCI-H23 lung
# NCI-H460 lung = test system: NCI-H460 lung
# NCI-H522 lung = test system: NCI-H522 lung
# NCI/ADR-RES ovarian = test system: NCI/ADR-RES ovarian
# OVCAR-3 ovarian = test system: OVCAR-3 ovarian
# OVCAR-4 ovarian = test system: OVCAR-4 ovarian
# OVCAR-5 ovarian = test system: OVCAR-5 ovarian
# OVCAR-8 ovarian = test system: OVCAR-8 ovarian
# PC-3 prostate = test system: PC-3 prostate
# RPMI-8226 leukemia = test system: RPMI-8226 leukemia
# RXF 393 renal = test system: RXF 393 renal
# SF-268 CNS = test system: SF-268 CNS
# SF-295 CNS = test system: SF-295 CNS
# SF-539 CNS = test system: SF-539 CNS
# SK-MEL-2 melanoma = test system: SK-MEL-2 melanoma
# SK-MEL-28 melanoma = test system: SK-MEL-28 melanoma
# SK-MEL-5 melanoma = test system: SK-MEL-5 melanoma
# SK-OV-3 ovarian = test system: SK-OV-3 ovarian
# SN12C renal = test system: SN12C renal
# SNB-19 CNS = test system: SNB-19 CNS
# SNB-75 CNS = test system: SNB-75 CNS
# SR leukemia = test system: SR leukemia
# SW-620 colon = test system: SW-620 colon
# T-47D breast = test system: T-47D breast
# TK-10 renal = test system: TK-10 renal
# U251 CNS = test system: U251 CNS
# UACC-257 melanoma = test system: UACC-257 melanoma
# UACC-62 melanoma = test system: UACC-62 melanoma
# UO-31 renal = test system: UO-31 renal
compound,measurement,setting,value
COC(=O)Nc1nc2ccc(Sc3ccccc3)cc2[nH]1,GI50,786-0 renal,323 nM
same,TGI,786-0 renal,14600 nM
same,GI50,A498 renal,140 nM
same,TGI,A498 renal,6400 nM
same,GI50,A549 NSCLC,208 nM
same,TGI,A549 NSCLC,5960 nM
same,GI50,ACHN renal,1190 nM
same,TGI,ACHN renal,22900 nM
same,GI50,BT-549 breast,1040 nM
same,TGI,BT-549 breast,18800 nM
same,GI50,CAKI-1 renal,225 nM
same,TGI,CAKI-1 renal,> 43500 nM
same,GI50,CCRF-CEM leukemia,249 nM
same,TGI,CCRF-CEM leukemia,> 100000 nM
same,GI50,COLO 205 colon,188 nM
same,TGI,COLO 205 colon,533 nM
same,GI50,DU-145 prostate,336 nM
same,TGI,DU-145 prostate,10800 nM
same,GI50,EKVX NSCLC,1640 nM
same,TGI,EKVX NSCLC,53600 nM
same,GI50,HCC-2998 colon,220 nM
same,TGI,HCC-2998 colon,3030 nM
same,GI50,HCT-116 colon,77.1 nM
same,TGI,HCT-116 colon,10100 nM
same,GI50,HCT-15 colon,82.5 nM
same,TGI,HCT-15 colon,23000 nM
same,GI50,HL-60(TB) leukemia,80.5 nM
same,TGI,HL-60(TB) leukemia,455 nM
same,GI50,HOP-62 NSCLC,277 nM
same,TGI,HOP-62 NSCLC,4230 nM
same,GI50,HOP-92 NSCLC,177 nM
same,TGI,HOP-92 NSCLC,7000 nM
same,GI50,HS 578T breast,260 nM
same,TGI,HS 578T breast,11200 nM
same,GI50,HT29 colon,49.4 nM
same,TGI,HT29 colon,1290 nM
same,GI50,IGROV1 ovarian,441 nM
same,TGI,IGROV1 ovarian,18300 nM
same,GI50,K-562 leukemia,48.2 nM
same,GI50,KM12 colon,63.4 nM
same,TGI,KM12 colon,22300 nM
same,GI50,LOX IMVI melanoma,487 nM
same,TGI,LOX IMVI melanoma,17200 nM
same,GI50,M14 melanoma,89.2 nM
same,TGI,M14 melanoma,1430 nM
same,GI50,MALME-3M melanoma,444 nM
same,TGI,MALME-3M melanoma,18800 nM
same,GI50,MCF7 breast,66.6 nM
same,TGI,MCF7 breast,26000 nM
same,GI50,MDA-MB-231 breast,476 nM
same,TGI,MDA-MB-231 breast,21500 nM
same,GI50,MDA-MB-435,30.7 nM
same,TGI,MDA-MB-435,111 nM
same,GI50,MOLT-4 leukemia,262 nM
same,GI50,NCI-H226 lung,291 nM
same,TGI,NCI-H226 lung,1700 nM
same,GI50,NCI-H23 lung,290 nM
same,TGI,NCI-H23 lung,31000 nM
same,GI50,NCI-H460 lung,247 nM
same,TGI,NCI-H460 lung,11600 nM
same,GI50,NCI-H522 lung,113 nM
same,TGI,NCI-H522 lung,587 nM
same,GI50,NCI/ADR-RES ovarian,67.4 nM
same,TGI,NCI/ADR-RES ovarian,461 nM
same,GI50,OVCAR-3 ovarian,123 nM
same,TGI,OVCAR-3 ovarian,421 nM
same,GI50,OVCAR-4 ovarian,856 nM
same,TGI,OVCAR-4 ovarian,6340 nM
same,GI50,OVCAR-5 ovarian,511 nM
same,TGI,OVCAR-5 ovarian,23400 nM
same,GI50,OVCAR-8 ovarian,298 nM
same,TGI,OVCAR-8 ovarian,3990 nM
same,GI50,PC-3 prostate,214 nM
same,TGI,PC-3 prostate,> 37400 nM
same,GI50,RPMI-8226 leukemia,358 nM
same,TGI,RPMI-8226 leukemia,> 36600 nM
same,GI50,RXF 393 renal,154 nM
same,TGI,RXF 393 renal,510 nM
same,GI50,SF-268 CNS,1440 nM
same,TGI,SF-268 CNS,26900 nM
same,GI50,SF-295 CNS,152 nM
same,TGI,SF-295 CNS,19900 nM
same,GI50,SF-539 CNS,234 nM
same,TGI,SF-539 CNS,933 nM
same,GI50,SK-MEL-2 melanoma,162 nM
same,TGI,SK-MEL-2 melanoma,2880 nM
same,GI50,SK-MEL-28 melanoma,387 nM
same,TGI,SK-MEL-28 melanoma,15500 nM
same,GI50,SK-MEL-5 melanoma,146 nM
same,TGI,SK-MEL-5 melanoma,4080 nM
same,GI50,SK-OV-3 ovarian,179 nM
same,TGI,SK-OV-3 ovarian,684 nM
same,GI50,SN12C renal,524 nM
same,TGI,SN12C renal,25700 nM
same,GI50,SNB-19 CNS,267 nM
same,TGI,SNB-19 CNS,28900 nM
same,GI50,SNB-75 CNS,195 nM
same,TGI,SNB-75 CNS,2050 nM
same,GI50,SR leukemia,35 nM
same,GI50,SW-620 colon,107 nM
same,TGI,SW-620 colon,> 48300 nM
same,GI50,T-47D breast,436 nM
same,TGI,T-47D breast,> 81200 nM
same,GI50,TK-10 renal,1270 nM
same,TGI,TK-10 renal,17300 nM
same,GI50,U251 CNS,168 nM
same,TGI,U251 CNS,4370 nM
same,GI50,UACC-257 melanoma,3080 nM
same,TGI,UACC-257 melanoma,> 66800 nM
same,GI50,UACC-62 melanoma,405 nM
same,TGI,UACC-62 melanoma,23900 nM
same,GI50,UO-31 renal,848 nM
same,TGI,UO-31 renal,20500 nM
